# According to US9382294B2, “Broad spectrum antibiotic compounds and use thereof” (Los Alamos National Security, LLC, priority 2013, dated 2016):
# Where a name gives a salt, the structure may show the parent alone. Read-outs that look alike come from different tables or passages of the source.
# Tests used:
# [1] = test system: C. difficile ATCC 700057; assay: MIC broth dilution assay (Table 2); format: cell-based, Clostridium difficile; settings: Clostridioides difficile
# Protocol: (§1) Stocks of test compounds and standards were diluted 1:100 to provide working stocks in each growth medium. For P. aeruginosa, S. enterica and S. aureus, eleven serial, one-half dilutions of the compounds and standards were prepared in 96-well polypropylene dilution blocks in cation-adjusted Mueller Hinton broth (CAMHB). The dilutions were transferred to 96-well assay plates. […] Bacterial suspensions were prepared and added to each well at a concentration of approximately 5×10^5 colony-forming-units per milliliter. […] At the completion of incubation the wells of each plate were evaluated visually for the presence of bacterial growth. The MIC was the concentration at which there was no growth. MICs against H. influenzae, S. pneumoniae and C. difficile were determined similarly, but dilutions were prepared directly in the 96-well assay plates and MIC parameters were as indicated below (Table 1). [table]
# [2] = test system: A. baumannii ATCC 19606; assay: MIC of more highly purified compounds (Table 3); format: cell-based
# Text: (§2) MIC was further evaluated using EtOAc extracts of more highly purified Compound #1 and Compound #2. MIC of these compounds was compared to ACHN-490 (Plazomicin; an aminoglycoside effective primarily against Gram-negative bacteria), Colistin (a polymyxin antibiotic effective against most Gram-negative bacilli), and Meropenem (an ultra broad-spectrum, beta-lactam antibiotic).
# [3] = test system: S. aureus (MRSA) ATCC 33591; assay: MIC of more highly purified compounds (Table 3); format: cell-based; settings: EtOAc extracts of more highly purified compounds
# Text: as §2
# [4] = test system: S. enterica ATCC 14028; assay: MIC of more highly purified compounds (Table 3); format: cell-based
# Text: as §2
# [5] = test system: K. pneumoniae ATCC 43816; assay: MIC of more highly purified compounds (Table 3); format: cell-based
# Text: as §2
# [6] = radio-HPLC of C. thermocellum culture fed 14C-labelled amino acids (water solubility of metabolite); format: physicochemical; settings: no new peak in radio-HPLC of culture
# Protocol: C. thermocellum was grown anaerobically in cellulose-containing medium. ^14C-labelled amino acids (^14C-L-Asp, ^14C-L-Leu and ^14C-L-Ile) were added to the culture media and radio-HPLC was performed. […] The orange suspension was centrifuged, the liquid layer separated from the cells and the DMSO was removed under reduced pressure. The final yield from this process was 14.7 mg.
# [7] = test system: HeLa cells; assay: in vitro cell toxicology assay; format: cell-based, human
# Protocol: (§3) In vitro cell toxicology assays were performed to evaluate the effect of Compound #1 on human cells. Compound #1, dissolved in DMSO, was added to vital cultures of HeLa cells and peripheral blood mononuclear cells (PMBC) one day after the cell cultures were started. For each cell line, pure DMSO (control #1), no DMSO (control #2) and Compound #1 in one times (T1-5 nM), five times (T5-25 nM) and ten times (T10-50 nM) of the bacteria-toxic concentration was added to the cell cultures for two sets each. All ten culture flasks per cell line (2×: T1, T5, T10, […]#2) were incubated under identical conditions and simple cell counts were performed on days two, four and six while replacing the cell culture medium to maintain the concentration of Compound #1.
# [8] = test system: peripheral blood mononuclear cells (PMBC); assay: in vitro cell toxicology assay; format: cell-based, human; settings: 5, 25, 50 nM
# Protocol: as §3
# [9] = Maximum Tolerated Dose (MTD) study; format: in vivo; settings: CD-1 mice; subcutaneous 20, 40 or 80 mg/kg; observed 1 hour, 24 hours and 48 hours
# Protocol: MTD studies were performed for Compound #1, Compound #2 and Compound #3. CD-1 mice, 6-8 weeks of age, were used for these studies. Groups of three mice were injected subcutaneously with 20 mg/kg, 40 mg/kg or 80 mg/kg of Compound #1, Compound #2 or Compound #3 Animals were observed 1 hour, 24 hours and 48 hours after administration of compound.
# [10] = test system: Acinetobacter baumannii (ATCC 17904); assay: bacterial growth inhibition assay (cellulose disks); format: cell-based; settings: 0.85 μg on 6 mm cellulose disk
# Protocol: (§4) To evaluate the antibiotic properties of the compounds produced by the NRPS cluster, Compound #1 or Compound #2 (0.85 μg) was diluted in 2 μl DMSO and soaked onto 6 mm cellulose disks for a bacterial growth inhibition assay.
# [11] = test system: Bacillus subtilis PY79; assay: as above; format: cell-based; settings: 0.85 μg on 6 mm cellulose disk
# Protocol: as §4
# [12] = test system: E. coli (ATCC 25922); assay: as above; format: cell-based; settings: 0.85 μg on 6 mm cellulose disk
# Protocol: as §4
# [13] = test system: E. coli K-12; assay: as above; format: cell-based; settings: 0.85 μg on 6 mm cellulose disk
# Protocol: as §4
# [14] = test system: Listeria grayi (ATCC 19120); assay: as above; format: cell-based; settings: 0.85 μg on 6 mm cellulose disk
# Protocol: as §4
# [15] = test system: Pseudomonas putida (ATCC 11172); assay: as above; format: cell-based; settings: 0.85 μg on 6 mm cellulose disk
# Protocol: as §4
# [16] = test system: Staphylococcus aureus (ATCC 2913); assay: as above; format: cell-based; settings: 0.85 μg on 6 mm cellulose disk
# Protocol: as §4
# [17] = test system: P. aeruginosa ATCC 27853; assay: MIC broth dilution assay (Table 2); format: cell-based; settings: Pseudomonas aeruginosa, ATCC27853, CAMHB, 16-20 h, 35° C., read-out: Minimum inhibitory concentration (MIC)
# Protocol: (§5) Stocks of test compounds and standards were diluted 1:100 to provide working stocks in each growth medium. For P. aeruginosa, S. enterica and S. aureus, eleven serial, one-half dilutions of the compounds and standards were prepared in 96-well polypropylene dilution blocks in cation-adjusted Mueller Hinton broth (CAMHB). The dilutions were transferred to 96-well assay plates. […] Bacterial suspensions were prepared and added to each well at a concentration of approximately 5×10^5 colony-forming-units per milliliter. The inoculated plates were incubated for 16-20 hours at 35±1° C. At the completion of incubation the wells of each plate were evaluated visually for the presence of bacterial growth. The MIC was the concentration at which there was no growth.
# [18] = test system: S. enterica ATCC 14028; assay: MIC broth dilution assay (Table 2); format: cell-based; settings: Salmonella enterica, ATCC14028, CAMHB, 16-20 h, 35° C., read-out: Minimum inhibitory concentration (MIC)
# Protocol: as §5
# [19] = test system: S. pneumoniae ATCC 49619; assay: MIC broth dilution assay (Table 2); format: cell-based; settings: Streptococcus pneumoniae, ATCC49619, CAMHB + LHB, 20-24 h, read-out: Minimum inhibitory concentration (MIC)
# Protocol: as §1
# [20] = test system: H. influenzae ATCC 49247; assay: MIC broth dilution assay (Table 2); format: cell-based; settings: ATCC49247, Haemophilus Test Medium Broth, 20-24 h, read-out: Minimum inhibitory concentration (MIC)
# Protocol: as §5, with “The inoculated plates were incubated for 16-20 hours at 35±1° C.” left out
# [21] = test system: C. difficile ATCC 70057; assay: MIC of more highly purified compounds (Table 3); format: cell-based; settings: Clostridioides difficile, ATCC70057, EtOAc extracts of more highly purified compounds
# Text: as §2
# [22] = test system: H. influenzae ATCC 49247; assay: MIC of more highly purified compounds (Table 3); format: cell-based; settings: Haemophilus influenzae, ATCC49247, EtOAc extracts of more highly purified compounds
# Text: as §2
# [23] = test system: S. pneumoniae ATCC 49619; assay: MIC of more highly purified compounds (Table 3); format: cell-based; settings: Streptococcus pneumoniae, ATCC49619, EtOAc extracts of more highly purified compounds
# Text: as §2
# [24] = Acinetobacter baumannii, ATCC19606, EtOAc extracts of more highly purified compounds, read-out: MIC
# [25] = Staphylococcus aureus, read-out: MIC
# [26] = Salmonella enterica, ATCC14028, EtOAc extracts of more highly purified compounds, read-out: MIC
# [27] = EtOAc extracts of more highly purified compounds
molecule,measurement,setting,value
"CN[C@H](CC(C)C)C(=O)N[C@H]1C(=O)N[C@@H](CC(N)=O)C(=O)N[C@H]2C(=O)N[C@H]3C(=O)N[C@H](C(=O)N[C@H](C(=O)O)c4cc(O)cc(O)c4-c4cc3ccc4O)[C@H](O)c3ccc(c(Cl)c3)Oc3cc2cc(c3O[C@@H]2O[C@H](CO)[C@@H](O)[C@H](O)[C@H]2O[C@H]2C[C@](C)(N)[C@H](O)[C@H](C)O2)Oc2ccc(cc2Cl)[C@H]1O [VAN, vancomycin hydrochloride, reference compound]",MIC,"[1]; ATCC700057, read-out: Minimum inhibitory concentration (MIC)",0.25 µg/mL
"CN[C@@H]1[C@@H](O)[C@@H](O[C@@H]2[C@@H](O)[C@H](O[C@H]3OC(CNCCO)=CC[C@H]3N)[C@@H](N)C[C@H]2NC(=O)[C@@H](O)CCN)OC[C@]1(C)O [ACHN-490, Plazomicin]",MIC,[2]; [24],8 µg/mL
C[C@@H](O)[C@H]1C(=O)N2C(C(=O)O)=C(S[C@@H]3CN[C@H](C(=O)N(C)C)C3)[C@H](C)[C@H]12 [Meropenem],MIC,[2]; [24],1 µg/mL
same,MIC,[3]; [25],> 16 µg/mL
same,MIC,[4]; [26],> 16 µg/mL
Colistin,MIC,[2]; [27],>32 µg/mL
same,MIC,[5]; [27],0.12 µg/mL
same,MIC,[3],32 µg/mL
same,MIC,[4]; [27],>32 µg/mL
CCC(C)C1N[C@@H]2OC[C@H](OC(=O)C(CC=O)NC1=O)[C@H](O[C@@H]1OC[C@@H](O)[C@H](O)[C@@H]1O)[C@@H]2O (stereo partly shown) [Compound #1],water solubility,[6],water insoluble
same,changes in physical appearance of cell line,"[7]; 5, 25, 50 nM",no changes in physical appearance
same,pyrogenic reactions,"[7]; 5, 25, 50 nM",No pyrogenic reactions
same,"variation of death rates, treated vs untreated cell cultures","[7]; 5, 25, 50 nM, cell counts on days two, four and six",less than 5%
same,proliferation rate,[7]; T10 (50 nM),slightly reduced
same,changes in physical appearance of cell line,[8],no changes in physical appearance
same,pyrogenic reactions,[8],No pyrogenic reactions
same,"variation of death rates, treated vs untreated cell cultures","[8]; cell counts on days two, four and six",less than 5%
same,signs of illness (MTD study),[9],No signs of illness
same,bacterial growth inhibition,[10],significantly inhibited bacterial growth
same,bacterial growth inhibition,[11],significantly inhibited bacterial growth
same,bacterial growth inhibition,[12],significantly inhibited bacterial growth
same,bacterial growth inhibition,[13],significantly inhibited bacterial growth
same,bacterial growth inhibition,[14],significantly inhibited bacterial growth
same,bacterial growth inhibition,[15],significantly inhibited bacterial growth
same,bacterial growth inhibition,[16],significantly inhibited bacterial growth
same,MIC,[17],> 128 µg/mL
same,MIC,[18],> 128 µg/mL
same,MIC,[19],64 µg/mL
same,MIC,[20],2 µg/mL
same,MIC,"[1]; ATCC700057, C. difficile ATCC 700057, Supplemented Brucella Broth + LHB, anaerobic, 46-48 h, read-out: Minimum inhibitory concentration (MIC)",32 µg/mL
same,MIC,[2]; [24],8 µg/mL
same,MIC,[21],16 µg/mL
same,MIC,[22],0.5 µg/mL
same,MIC,"[5]; Klebsiella pneumoniae, ATCC43816, EtOAc extracts of more highly purified compounds, read-out: MIC",8 µg/mL
same,MIC,[3]; [25],16 µg/mL
same,MIC,[4]; [26],16 µg/mL
same,MIC,[23],16 µg/mL
